How the values were obtained:
Botrytis cinerea [1] = test: Contact evaluation (microtiter plate); type: cell-based
Experimental: (§1) Compound solution: Contact evaluations were conducted to determine the anti-fungal activity of each compound against Botrytis cinerea, Sclerotinia sclerotiorum, Pythium aphanidermatum, Rhizoctonia solani, Cercospora arachidicola, Mycosphaerella fijiensis, and Monilinia laxa. Five milligrams of each compound were dissolved in 0.5 milliliter of DMSO for a compound stock solution of 1.0% w/v. Compound stock solutions were serial diluted with DMSO to 20, 10, and 2 ppm final well concentration.
(§2) Fungi preparation: Botrytis cinerea spores were taken from 6-week-old cultures grown at 22 C on full strength potato dextrous agar (PDA) plates. Sclerotinia sclerotiorum, Pythium aphanidermatum, Rhizoctonia solani, and Monilinia laxa mycelia were taken from 4- to 10-day-old shake flask cultures grown at room temperature on full strength potato dextrous broth (PDB). Cercospora arachidicola mycelia were taken from 10- to 14-day-old shake flask cultures grown at room temperature on a full strength PDB amended with peanut oil. Mycosphaerella fijiensis mycelia were taken from 10- to 14-day-old shake flask cultures grown at room temperature on V8 juice broth. Sclerotinia sclerotiorum, Pythium aphanidermatum, Rhizoctonia solani, Cercospora arachidicola, and Mycosphaerella fijiensis mycelia (0.4 g mycelia) were blended for 45 seconds in 20 mL sterile de-ionized water. Monilinia laxa mycelia (1 g mycelia) was blended for 45 seconds in 30 mL of sterile de-ionized water. Botrytis cinerea spores were diluted with quarter strength PDB to 1×10^5 spores/mL final well concentration. All mycelia were diluted in water (1:5 mycelia:water) before distributing into the wells.
(§3) Microtiter plate preparation: Compound solution (10 :L), quarter strength PDB (900 :L) and fungi preparation (100 :L) were sequentially distributed into 48-well microtiter plates (n=3 replications/compound/rate). A blank consisted of quarter strength PDB and fungi preparation. Commercial fungicide controls (100 ppm diluted with water) consisted of Scala for Botrytis cinerea, Dithane F-45 for Mycosphaerella fijiensis, and Benlate for Sclerotinia sclerotiorum, Pythium aphanidermatum, Rhizoctonia solani, Cercospora arachidicola, and Monilinia laxa. Plates were shaken in a circular rotator at room temperature for 20 minutes, then incubated at 25 C for 24 to 72 hours, depending on the pathogen.
(§4) Fungal control ratings: Fungal growth in wells containing the compounds were compared to the positive control and fungal inhibition was rated as full, partial, or none. Final readings were the average of the three wells (Table 1).

Cercospora arachidicola = test: Contact evaluation (microtiter plate); type: cell-based
Experimental: as §1, §2, §3, §4

Monilinia laxa = test: Contact evaluation (microtiter plate); type: cell-based
Experimental: as §1, §2, §3, §4

Mycosphaerella fijiensis = test: Contact evaluation (microtiter plate); type: cell-based
Experimental: as §1, §2, §3, §4

Pythium aphanidermatum = test: Contact evaluation (microtiter plate); type: cell-based
Experimental: as §1, §2, §3, §4

Rhizoctonia solani = test: Contact evaluation (microtiter plate); type: cell-based; conditions: Rhizoctinia solani
Experimental: as §1, §2, §3, §4

Sclerotinia sclerotiorum = test: Contact evaluation (microtiter plate); type: cell-based; conditions: Sclerotinia sclerotionum
Experimental: as §1, §2, §3, §4

Botrytis cinerea [2] = test: Detached bean leaf bioassay, fungal control; type: in vivo; conditions: 200 ppm on detached bean leaf; 100 minus percent necrotic area, three days after inoculation
Experimental: Compound solution: Compound solutions were prepared by diluting compound stock solutions (1.0% w/v compound in DMSO) to 200 ppm with 0.01% w/v Triton X-100. Spore solution preparation: Botrytis cinerea spores were taken from 6-week-old cultures grown at 22 C on full strength potato dextrous agar (PDA) plates and harvested in 1:16 frozen orange juice concentrate:water. Botrytis cinerea spore solutions were prepared by diluting spore cultures to 5×10^4 spores/mL with 1:16 frozen orange juice concentrate:water. Plant material: Middle trifoliate leaves of greenhouse grown Phaseolus vulgaris (Bush bean cv. Blue Lake 274) were excised and placed on a plastic grid above a tray containing moist towels. Treatment method: One half of the adaxial surface of the leaf was treated with the compound solution (100 :L) using a 3 cm Bacti Cell Spreader. A blank consisted of 0.01% w/v Triton X-100. A commercial fungicide control (200 ppm diluted with water) consisted of Scala. […] Fungal control rating: Three days after inoculation with Botrytis, the percent necrotic area under the inoculation droplet was determined. Since the areas under the blank (0.01% w/v Triton X-100) were 100% infected, fungal control was expressed as 100 minus the percent necrotic area, and thus 0% infected is 100% fungal control (n=3 leaves/compound, 5 inoculation droplets/leaf, Table 2).

[3] = system: Phaseolus vulgaris (Bush bean cv. Blue Lake 274) leaves; test: Detached bean leaf bioassay, phytotoxicity rating; type: in vivo; conditions: 200 ppm on detached bean leaf; rated no, slight, moderate or excessive phytotoxicity
Experimental: Compound solution: Compound solutions were prepared by diluting compound stock solutions (1.0% w/v compound in DMSO) to 200 ppm with 0.01% w/v Triton X-100. Plant material: Middle trifoliate leaves of greenhouse grown Phaseolus vulgaris (Bush bean cv. Blue Lake 274) were excised and placed on a plastic grid above a tray containing moist towels. Treatment method: One half of the adaxial surface of the leaf was treated with the compound solution (100 :L) using a 3 cm Bacti Cell Spreader. A blank consisted of 0.01% w/v Triton X-100. A commercial fungicide control (200 ppm diluted with water) consisted of Scala. After the solutions dried, the trays containing the leaves were covered and held one day in a growth chamber (22 C). The adaxial surfaces of the leaves were then inoculated with 5-60 :L droplets of Botrytis cinerea spore solution. Phytotoxicity ratings: Phytotoxicity was rated as 0=no phytotoxicity, 1=slight phytotoxicity, 2=moderate phytotoxicity, or 3=excessive phytotoxicity (Table 2).

- melting point: 128 to 131 °C
SMILES: OCCOc1c(Br)cc(Br)c2cccnc12 [Example 1, 5,7-dibromo-8-(2-hydroxyethoxy) quinoline]
- Control of fungi (full, partial, none) (Botrytis cinerea [1]; fungicide rate 2 ppm): Partial
- Control of fungi (full, partial, none) (Botrytis cinerea [1]; fungicide rate 10 ppm): Full
- Control of fungi (full, partial, none) (Botrytis cinerea [1]; fungicide rate 20 ppm): Full
- Control of fungi (full, partial, none) (Cercospora arachidicola; fungicide rate 2 ppm): None
- Control of fungi (full, partial, none) (Cercospora arachidicola; fungicide rate 10 ppm): Full
- Control of fungi (full, partial, none) (Cercospora arachidicola; fungicide rate 20 ppm): Full
- Control of fungi (full, partial, none) (Monilinia laxa; fungicide rate 2 ppm): Full
- Control of fungi (full, partial, none) (Monilinia laxa; fungicide rate 10 ppm): Full
- Control of fungi (full, partial, none) (Monilinia laxa; fungicide rate 20 ppm): Full
- Control of fungi (full, partial, none) (Mycosphaerella fijiensis; fungicide rate 2 ppm): Full
- Control of fungi (full, partial, none) (Mycosphaerella fijiensis; fungicide rate 10 ppm): Full
- Control of fungi (full, partial, none) (Mycosphaerella fijiensis; fungicide rate 20 ppm): Full
- Control of fungi (full, partial, none) (Pythium aphanidermatum; fungicide rate 2 ppm): Full
- Control of fungi (full, partial, none) (Pythium aphanidermatum; fungicide rate 10 ppm): Full
- Control of fungi (full, partial, none) (Pythium aphanidermatum; fungicide rate 20 ppm): Full
- Control of fungi (full, partial, none) (Rhizoctonia solani; fungicide rate 2 ppm): Full
- Control of fungi (full, partial, none) (Rhizoctonia solani; fungicide rate 10 ppm): Full
- Control of fungi (full, partial, none) (Rhizoctonia solani; fungicide rate 20 ppm): Full
- Control of fungi (full, partial, none) (Sclerotinia sclerotiorum; fungicide rate 2 ppm): Full
- Control of fungi (full, partial, none) (Sclerotinia sclerotiorum; fungicide rate 10 ppm): Full
- Control of fungi (full, partial, none) (Sclerotinia sclerotiorum; fungicide rate 20 ppm): Full
- Botrytis cinerea control (200 ppm) (Botrytis cinerea [2]): 100%
- Phytotoxity (200 ppm) [3]: Slight

Reference: patent US20070270461A1, “Fungicide” (Valent BioSciences Corporation, priority 2006, published 2007)
